ChEMBL document CHEMBL6120994, “Unravelling the potential of natural chelating agents in the control of Staphylococcus aureus and Pseudomonas aeruginosa biofilms” (Eur J Med Chem, 2025)
Calls of active or inactive are those of the source. The rule behind the calls is not given here.

Key:
Staphylococcus aureus [1] = assay: Antibacterial activity against Staphylococcus aureus CECT 976 assessed as inhibition of bacterial growth incubated for 24 hrs by broth microdilution method; format: functional
Pseudomonas aeruginosa [2] = assay: Bactericidal activity against Pseudomonas aeruginosa ATCC 10145 assessed as bacterial killing incubated in MHB for 24 hrs and measured following culturing on agar plate for 24 hrs; format: functional; conditions: time 48 hrs
[3] = Metal chelating activity at iron(III) in chrome azurol sulphonate solution at 1000 ug/ml incubated for 30 mins by spectrophotometric analysis; conditions: dose 1000.0 µg/ml
Pseudomonas aeruginosa [4] = assay: Antibacterial activity against Pseudomonas aeruginosa ATCC 10145 assessed as inhibition of bacterial growth by measuring inhibition zone diameter at 100 ug/ml incubated for 24 hrs in presence of gentamicin by disc diffusion method (reference value: 8.25 +/-0.5 mm); format: functional; conditions: read-out: DIZ
Pseudomonas aeruginosa [5] = assay: Antibacterial activity against Pseudomonas aeruginosa ATCC 10145 assessed as inhibition of bacterial growth by measuring inhibition zone diameter at 100 ug/ml incubated for 24 hrs in presence of tobramycin by disc diffusion method (reference value: 13.25 +/-0.5 mm); format: functional; conditions: read-out: DIZ
Staphylococcus aureus [6] = assay: Antibacterial activity against Staphylococcus aureus CECT 976 assessed as inhibition of bacterial growth by measuring inhibition zone diameter at 1000 ug/ml incubated for 24 hrs in presence of fusidic acid by disc diffusion method (reference value: 27.75 +/- 0.5 mm); format: functional; conditions: read-out: DIZ
Staphylococcus aureus [7] = assay: Antibiotic adjuvant activity against Staphylococcus aureus CECT 976 assessed as potentiation of tobramycin-induced antibacterial activity by measuring fractional inhibitory concentration index (MIC) at 62.5 ug/ml measured after 24 hrs by checkerboard assay; format: functional; conditions: dose 62.5 µg/ml
Pseudomonas aeruginosa [8] = assay: Antibiotic adjuvant activity against Pseudomonas aeruginosa ATCC 10145 assessed as potentiation of ciprofloxacin-induced antibiofilm activity by measuring reduction in metabolic activity of biofilm cells at 500 ug/ml in presence of ciprofloxacin by resazurin staining based fluorescence analysis; format: functional, organism-based; conditions: dose 500.0 µg/ml
Staphylococcus aureus [9] = assay: Antibiofilm activity against Staphylococcus aureus CECT 976 assessed as reduction in biomass production at 500 to 1000 ug/ml measured after 24 hrs by crystal violet staining method; format: functional; conditions: dose 500-1000 µg/ml, at 500 to 1000 µg/mL
Staphylococcus aureus [10] = assay: Antibiotic adjuvant activity against Staphylococcus aureus CECT 976 assessed as potentiation of tobramycin-induced antibiofilm activity by measuring reduction in biomass production at 500 ug/ml measured after 24 hrs in presence of tobramycin by crystal violet staining method; format: functional, organism-based; conditions: dose 500.0 µg/ml
Staphylococcus aureus [11] = assay: Antibiotic adjuvant activity against Staphylococcus aureus CECT 976 assessed as potentiation of tobramycin-induced antibiofilm activity by measuring reduction in metabolic activity of biofilm cells at 500 ug/ml in presence of tobramycin by resazurin staining based fluorescence analysis; format: functional, organism-based; conditions: dose 500.0 µg/ml
Pseudomonas aeruginosa [12] = assay: Antibiofilm activity against preestablished 24 hr-old Pseudomonas aeruginosa ATCC 10145 assessed as biomass removal at 1000 to 10000 ug/ml measured after 24 hrs by crystal violet staining method; format: functional; conditions: dose 1000-10000 µg/ml, at 1000 to 10000 µg/mL
Pseudomonas aeruginosa [13] = assay: Antibiofilm activity against preestablished 24 hr-old Pseudomonas aeruginosa ATCC 10145 assessed as reduction in metabolic activity of biofilm cells at 10XMTC by resazurin staining based fluorescence analysis; format: functional
Pseudomonas aeruginosa [14] = assay: Antibiotic adjuvant activity against preestablished 24-hr old Pseudomonas aeruginosa ATCC 10145 assessed as potentiation of ciprofloxacin-induced antibiofilm activity by measuring reduction of biomass at 1000 ug/ml measured after 24 hrs in presence of 1/8XMIC ciprofloxacin by crystal violet staining method; format: functional, organism-based; conditions: dose 1000.0 µg/ml
Pseudomonas aeruginosa [15] = assay: Antibiotic adjuvant activity against preestablished 24-hr old Pseudomonas aeruginosa ATCC 10145 assessed as potentiation of ciprofloxacin-induced antibiofilm activity by measuring reduction in metabolic activity of biofilm cells at 1000 ug/ml in presence of 1/8XMIC ciprofloxacin by resazurin staining based fluorescence analysis; format: functional, organism-based; conditions: dose 1000.0 µg/ml
Cell membrane [16] = assay: Disruption of membrane integrity in Staphylococcus aureus CECT 976 biofilm at 500 ug/ml measured after 24 hrs in presence of 1/2XMIC tobramycin by SYTO9/PI dye based epifluorescence microscopy; format: subcellular; conditions: dose 500.0 µg/ml
Cell membrane [17] = assay: Disruption of membrane integrity in pre-established 24 hr-old Staphylococcus aureus CECT 976 biofilm at 10XMTC measured after 24 hrs by SYTO9/PI dye based epifluorescence microscopy; format: subcellular
Cell membrane [18] = assay: Disruption of membrane integrity in pre-established 24 hr-old Staphylococcus aureus CECT 976 assessed as reduction in number of cells at 10XMTC measured after 24 hrs in presence of 1XMIC tobramycin by SYTO9/PI dye based epifluorescence microscopy
Staphylococcus aureus [19] = assay: Inhibition of virulence production in Staphylococcus aureus CECT 976 biofilms assessed as diameter of gelatinases halo at 1/2XMTC measured after 48 hrs in presence of 1/4XMIC tobramycin (reference value: 11.3 to 11.8 mm); format: functional
Staphylococcus aureus [20] = assay: Inhibition of virulence production in Staphylococcus aureus CECT 976 biofilms assessed as diameter of gelatinases halo at 1/2XMTC measured after 48 hrs in presence of 1/2XMIC tobramycin (reference value: 10 to 10.8 mm); format: functional
Staphylococcus aureus [21] = assay: Inhibition of virulence production in Staphylococcus aureus CECT 976 biofilms assessed as diameter of lipases halo at 1/2XMTC measured after 48 hrs in presence of 1/4XMIC tobramycin (reference value: 12.3 to 13.5 mm); format: functional
Staphylococcus aureus [22] = assay: Inhibition of virulence production in Staphylococcus aureus CECT 976 biofilms assessed as diameter of lipases halo at 1/2XMTC measured after 48 hrs in presence of 1/2XMIC tobramycin (reference value: 12.5 to 13.5 mm); format: functional
Staphylococcus aureus [23] = assay: Inhibition of virulence production in Staphylococcus aureus CECT 976 biofilms assessed as diameter of protease halo at 1/2XMTC measured after 72 hrs in presence of 1/2XMIC tobramycin (reference value: 12.5 to 13.3 mm); format: functional
Staphylococcus aureus [24] = assay: Inhibition of virulence production in pre-established 24 hr-old Staphylococcus aureus CECT 976 biofilms assessed as diameter of gelatinases halo at 1XMTC measured after 48 hrs (reference value: 10 mm); format: functional
Staphylococcus aureus [25] = assay: Inhibition of virulence production in pre-established 24 hr-old Staphylococcus aureus CECT 976 biofilms assessed as diameter of gelatinases halo at 10XMTC measured after 48 hrs (reference value: 10.8 to 11 mm); format: functional
Staphylococcus aureus [26] = assay: Inhibition of virulence production in pre-established 24 hr-old Staphylococcus aureus CECT 976 biofilms assessed as diameter of gelatinases halo at 10XMTC measured after 48 hrs in presence of 1/2XMIC tobramycin (reference value: 9.3 to 9.5 mm); format: functional
Staphylococcus aureus [27] = assay: Inhibition of virulence production in pre-established 24 hr-old Staphylococcus aureus CECT 976 biofilms assessed as diameter of lipases halo at 10XMTC measured after 48 hrs in presence of 1XMIC tobramycin (reference value: 11.8 to 12.3 mm); format: functional
Staphylococcus aureus [28] = assay: Inhibition of virulence production in pre-established 24 hr-old Staphylococcus aureus CECT 976 biofilms assessed as diameter of protease halo at 10XMTC measured after 72 hrs (reference value: 12.5 to 13.3 mm); format: functional

| SMILES | MIC (Staphylococcus aureus [1]) | MBC (Pseudomonas aeruginosa [2]) | Activity [3] | zone of inhibition at 100 µg/mL (Pseudomonas aeruginosa [4]) | zone of inhibition at 100 µg/mL (Pseudomonas aeruginosa [5]) | zone of inhibition at 1000 µg/mL (Staphylococcus aureus [6]) | fractional inhibitory concentration index (FICI) (Staphylococcus aureus [7]) | Activity (Pseudomonas aeruginosa [8]) | inhibition (INH) (Staphylococcus aureus [9]) | Activity (Staphylococcus aureus [10]) | Activity (Staphylococcus aureus [11]) | inhibition (INH) (Pseudomonas aeruginosa [12]) | inhibition (INH) (Pseudomonas aeruginosa [13]) | Activity (Pseudomonas aeruginosa [14]) | Activity (Pseudomonas aeruginosa [15]) | Activity (Cell membrane [16]) | Activity (Cell membrane [17]) | Activity (Cell membrane [18]) | Activity (Staphylococcus aureus [19]) | Activity (Staphylococcus aureus [20]) | other results |
| --- | --- | --- | --- | --- | --- | --- | --- | --- | --- | --- | --- | --- | --- | --- | --- | --- | --- | --- | --- | --- | --- |
| O=c1cc(CO)occ1O [KOJIC ACID] | > 1000 µg/mL | > 1000 µg/mL | 85% | 12 mm | 17.2 mm | 26.8 mm | 0.3 | inactive | 26% | Active; Slight Increase Noted | inactive | 15% | 70% | inactive | inactive | inactive | inactive | Active | 0 mm | 0 mm | Activity (Staphylococcus aureus [21]): 2 mm; Activity (Staphylococcus aureus [22]): 2.3 mm; Activity (Staphylococcus aureus [23]): 0 mm; Activity (Staphylococcus aureus [24]): 0 mm; Activity (Staphylococcus aureus [25]): 0 mm; Activity (Staphylococcus aureus [26]): 0 mm; Activity (Staphylococcus aureus [27]): 2 mm; Activity (Staphylococcus aureus [28]): 0 mm |
| Cc1occc(=O)c1O [MALTOL] | > 1000 µg/mL | > 1000 µg/mL | 90% | 11.8 mm | 16.2 mm | 28.2 mm | 0.3 | inactive | 26% | Active; Slight Increase Noted | inactive | 15% | 70% | inactive | inactive | inactive | inactive | Active | 0 mm | 0 mm | Activity (Staphylococcus aureus [21]): 2.3 mm; Activity (Staphylococcus aureus [22]): 2 mm; Activity (Staphylococcus aureus [23]): 0 mm; Activity (Staphylococcus aureus [24]): 0 mm; Activity (Staphylococcus aureus [25]): 0 mm; Activity (Staphylococcus aureus [26]): 0 mm; Activity (Staphylococcus aureus [27]): 2.3 mm; Activity (Staphylococcus aureus [28]): 0 mm |
